Like-named read-outs stand apart in the source and are kept apart here.
What was measured:
rgRSV224 virus = assay: Antiviral activity: inhibition of rgRSV224 (GFP-expressing RSV) replication in HeLa cells; format: cell-based, respiratory syncytial virus; details: for EC50: human respiratory syncytial virus, HeLa, 72 h; for pEC50: rgRSV224 (MOI=0.02) in HeLa cells, GFP expression three days post-virus exposure
Outline: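 HeLa cells infected with GFP-expressing rgRSV224 at MOI 0.02 alongside 4-fold compound dilutions in duplicate (0.5% DMSO). Incubated 3 days at 37 °C; EC50 taken as 50% inhibition of GFP expression by laser microscopy. CC50 measured in parallel uninfected cells by ATP content after 3 days; SI = CC50/EC50.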

[1] = read-out: pEC50, rgRSV224 (MOI=0.02) in HeLa cells, GFP expression three days post-virus exposure (converted)
[2] = read-out: RSV-wt_pEC50, rgRSV224 (MOI=0.02) in HeLa cells, GFP expression three days post-virus exposure

## CC(C)(C)OC(=O)N1CC2(C1)C(=O)N(Cc1nc3cc(Cl)ccc3n1CCCC#N)c1ccccc12 [Compound 70, tert-butyl 1′-((5-chloro-1-(3-cyanopropyl)-1H-benzo[d]-imidazol-2-yl)methyl)-2′-oxospiro[azetidine-3,3′-indoline]-1-carboxylate]
other
  melting point: 144.1 °C
rgRSV224 virus; [1]
  EC50: < 0.158 nM

## O=C1N(Cc2nc3cc(Cl)ccc3n2CCCC(F)(F)F)c2cc(F)ccc2C12CCOCC2 [Compound 71, 1-((5-chloro-1-(4,4,4-trifluorobutyl)-1H-benzo[d]imidazol-2-yl)methyl)-6-fluoro-2′,3′,5′,6′-tetrahydrospiro[indoline-3,4′-pyran]-2-one]
other
  melting point: 172.7 °C
rgRSV224 virus; [1]
  EC50: 3.16 nM

## CC(=O)N1CC2(C1)C(=O)N(Cc1nc3cc(Cl)ccc3n1CCCS(C)(=O)=O)c1ccccc12 [Compound 72, 1-acetyl-1′-((5-chloro-1-(3-(methylsulfonyl)propyl)-1H-benzo[d]imidazol-2-yl)methyl)spiro[azetidine-3,3′-indolin]-2′-one]
other
  melting point: 226.51 °C
rgRSV224 virus
  pEC50: 9.6

## CC(C)(O)C(=O)N1CC2(C1)C(=O)N(Cc1cc3cc(Cl)ccc3n1CCCC#N)c1ccccc12 [Compound 73, 4-(5-chloro-2-((1-(2-hydroxy-2-methylpropanoyl)-2′-oxospiro[azetidine-3,3′-indolin]-1′-yl)methyl)-1H-indol-1-yl)butanenitrile]
other
  melting point: 89.86 °C
rgRSV224 virus; [1]
  EC50: 0.501 nM

## O=C1N(Cc2nc3nc(Cl)ccc3n2CCCC(F)(F)F)c2cnccc2C12CCOCC2 [Compound 75, 1′-((5-chloro-1-(4,4,4-trifluorobutyl)-1H-imidazo[4,5-b]-pyridin-2-yl)methyl)-2,3,5,6-tetrahydrospiro[pyran-4,3′-pyrrolo[2,3-c]pyridin]-2′(1′H)-one]
other
  melting point: 188.67 °C
rgRSV224 virus
  pEC50: 8.3

## N#CCCCn1c(CN2C(=O)C3(CCN(C(=O)OC4COC4)CC3)c3ccncc32)cc2cc(Cl)ccc21 [Compound 80, oxetan-3-yl 1′-((5-chloro-1-(3-cyanopropyl)-1H-indol-2-yl)-methyl)-2′-oxo-1′,2′-dihydro[spiropiperidine-4,3′-pyrrolo-[2,3-c]pyridine]-1-carboxylate]
other
  melting point: 208.24 °C
rgRSV224 virus; [1]
  EC50: < 0.158 nM

## N#CCCCn1c(CN2C(=O)C3(CCN(S(=O)(=O)C4CC4)CC3)c3ccncc32)cc2cc(Cl)ccc21 [Compound 81, 4-(5-chloro-2-((1-(cyclopropylsulfonyl)-2′-oxospiro-[piperidine-4,3′-pyrrolo[2,3-c]pyridin]-1′(2′H)-yl)methyl)-1H-indol-1-yl)butanenitrile]
other
  melting point: 93.04 °C
rgRSV224 virus; [1]
  EC50: < 0.158 nM

## N#CCCCn1c(CN2C(=O)C3(CCN(C(=O)OC4COC4)CC3)c3ccncc32)nc2cc(Cl)ccc21 [Compound 82, oxetan-3-yl 1′-((5-chloro-1-(3-cyanopropyl)-1H-benzo[d]-imidazol-2-yl)methyl)-2′-oxo-1′,2′-dihydrospiro[piperidine-4,3′-pyrrolo[2,3-c]pyridine]-1-carboxylate]
other
  melting point: 203.41 °C
rgRSV224 virus; [1]
  EC50: < 0.158 nM

## CC(=O)N1CCC2(CC1)C(=O)N(Cc1nc3cc(Cl)ccc3n1CCCC#N)c1cnccc12 [Compound 83, 4-(2-((1-acetyl-2′-oxospiro[piperidine-4,3′-pyrrolo[2,3-c]-pyridin]-1′(2′H)-yl)methyl)-5-chloro-1H-benzo[d]imidazol-1-yl)butanenitrile]
other
  melting point: 223.53 °C
rgRSV224 virus; [1]
  EC50: < 0.158 nM

## CS(=O)(=O)CCCn1c(CN2C(=O)C3(CCN(S(=O)(=O)C4CC4)CC3)c3ccncc32)nc2cc(Cl)ccc21 [Compound 85, 1′-((5-chloro-1-(3-(methylsulfonyl)propyl)-1H-benzo[d]-imidazol-2-yl)methyl)-1-(cyclopropylsulfonyl)spiro-[piperidine-4,3′-pyrrolo[2,3-c]pyridin]-2′(1′H)-one]
other
  melting point: 150.42 °C
rgRSV224 virus; [1]
  EC50: < 0.158 nM

## CS(=O)(=O)CCCn1c(CN2C(=O)C3(CCN(C(=O)C4CC4)CC3)c3ccncc32)nc2cc(Cl)ccc21 [Compound 90, 1′-({5-Chloro-1-[3-(methylsulfonyl)propyl]-1H-benzimidazol-2-yl}methyl)-1-(cyclopropylcarbonyl)spiro[piperidine-4,3′-pyrrolo[2,3-c]pyridin]-2′(1′H)-one]
other
  melting point: 208.64 °C
rgRSV224 virus; [2]
  EC50: 0.0468 nM

## CS(=O)(=O)N1CC2(C1)C(=O)N(Cc1nc3cc(Cl)ccc3n1CCCC#N)c1ccccc12 [Compound 94, 4-(5-Chloro-2-{[1-(methylsulfonyl)-2′-oxospiro[azetidine-3,3′-indol]-1′(2′H)-yl]methyl}-1H-benzimidazol-1-yl)-butanenitrile]
other
  melting point: 214.11 °C
rgRSV224 virus; [2]
  EC50: 0.129 nM

## CS(=O)(=O)CCCn1c(CN2C(=O)C3(CCN(S(=O)(=O)c4cccs4)CC3)c3ccccc32)nc2cc(Cl)ccc21 [Compound 102]
other
  melting point: 233.06 °C
rgRSV224 virus; [2]
  EC50: 1.45 nM

## CNC(=O)OC1CC2(C1)C(=O)N(Cc1nc3cc(Cl)ccc3n1CCCS(C)(=O)=O)c1ccccc12 [Compound 104, (1R,3R)-1′-((5-chloro-1-(3-(methylsulfonyl)propyl)-1H-benzo[d]imidazol-2-yl)methyl)-2′-oxospiro[cyclobutane-1,3′-indoline]-3-yl methylcarbamate]
other
  melting point: 204.17 °C
rgRSV224 virus; [2]
  EC50: 0.0229 nM

## CS(=O)(=O)N1CCC2(CC1)C(=O)N(Cc1cc3cc(Cl)ccc3n1CCCC#N)c1cnccc12 [Compound 105, 4-(5-Chloro-2-{[1-(methylsulfonyl)-2′-oxospiro[piperidine-4,3′-pyrrolo[2,3-c]pyridin]-1′(2′H)-yl]methyl}-1H-indol-1-yl)butanenitrile]
other
  melting point: 145.3 °C
rgRSV224 virus; [2]
  EC50: 0.0832 nM

## CC(=O)NS(=O)(=O)N1CCC2(CC1)C(=O)N(Cc1cc3cc(Cl)ccc3n1CCCCF)c1cnccc12 [Compound 114, N-[(1′-{[5-Chloro-1-(4-fluorobutyl)-1H-indol-2-yl]methyl}-2′-oxo-1′,2′-dihydro-1H-spiro[piperidine-4,3′-pyrrolo[2,3-c]-pyridin]-1-yl)sulfonyl]acetamide]
other
  melting point: 236.92 °C
rgRSV224 virus; [2]
  EC50: 0.427 nM

## CC(=O)NS(=O)(=O)N1CC2(C1)C(=O)N(Cc1cc3cc(Cl)ccc3n1CCCC#N)c1ccccc12 [Compound 117, N-[(1′-{[5-Chloro-1-(3-cyanopropyl)-1H-indol-2-yl]methyl}-2′-oxo-1′,2′-dihydro-1H-spiro[azetidine-3,3′-indol]-1-yl)sulfonyl]acetamide]
other
  melting point: 182.85 °C
rgRSV224 virus; [2]
  EC50: 10 nM

## CC(C)NC(=O)N[C@H]1C[C@]2(C1)C(=O)N(Cc1nc3cc(Cl)ccc3n1CCCC#N)c1ccccc12 [Compound 143, 1-((1s,3s)-1′-((5-chloro-1-(3-cyanopropyl)-1H-benzo[d]imidazol-2-yl)methyl)-2′-oxospiro[cyclobutane-1,3′-indolin]-3-yl)-3-isopropylurea]
other
  melting point: 242.49 °C
rgRSV224 virus; [2]
  EC50: 3.31 nM

## CC(C)NC(=O)N[C@H]1C[C@@]2(C1)C(=O)N(Cc1nc3cc(Cl)ccc3n1CCCC#N)c1ccccc12 [Compound 144, 1-((1r,3r)-1′-((5-chloro-1-(3-cyanopropyl)-1H-benzo[d]imidazol-2-yl)methyl)-2′-oxospiro[cyclobutane-1,3′-indolin]-3-yl)-3-isopropylurea]
other
  melting point: 219.9 °C
rgRSV224 virus; [2]
  EC50: 0.229 nM

## CC(=O)N[C@H]1C[C@]2(C1)C(=O)N(Cc1nc3cc(Cl)ccc3n1CCCC#N)c1ccccc12 [Compound 145, N-((1s,3s)-1′-((5-chloro-1-(3-cyanopropyl)-1H-benzo[d]imidazol-2-yl)methyl)-2′-oxospiro[cyclobutane-1,3′-indolin]-3-yl)acetamide]
other
  melting point: 250.91 °C
rgRSV224 virus; [2]
  EC50: 0.302 nM

## CC(=O)N[C@H]1C[C@@]2(C1)C(=O)N(Cc1nc3cc(Cl)ccc3n1CCCC#N)c1ccccc12 [Compound 146, N-((1r,3r)-1′-((5-chloro-1-(3-cyanopropyl)-1H-benzo[d]imidazol-2-yl)methyl)-2′-oxospiro[cyclobutane-1,3′-indolin]-3-yl)acetamide]
other
  melting point: 194.77 °C
rgRSV224 virus; [2]
  EC50: 0.501 nM

## N#CCCCn1c(CN2C(=O)C3(CCN(C(=O)OCCO)CC3)c3ccncc32)cc2cc(Cl)ccc21 [Compound 147, 2-Hydroxyethyl 1′-{[5-chloro-1-(3-cyanopropyl)-1H-indol-2-yl]methyl}-2′-oxo-1′,2′-dihydro-1H-spiro[piperidine-4,3′-pyrrolo[2,3-c]pyridine]-1-carboxylate]
other
  melting point: 144.55 °C
rgRSV224 virus; [2]
  EC50: 0.055 nM

## CC(C)(O)C(=O)N1CCC2(CC1)C(=O)N(Cc1nc3cc(Cl)ccc3n1CCCCO)c1cnccc12 [Compound 164, 1′-{[5-Chloro-1-(4-hydroxybutyl)-1H-benzimidazol-2-yl]methyl}-1-(2-hydroxy-2-methylpropanoyl)spiro[piperidine-4,3′-pyrrolo[2,3-c]pyridin]-2′(1′H)-one]
other
  melting point: 191.87 °C
rgRSV224 virus; [2]
  EC50: 0.126 nM

## CC(C)(O)C(=O)N1CC2(C1)C(=O)N(Cc1cc3cc(Cl)ccc3n1CCCCO)c1ccccc12 [Compound 166, 1′-{[5-Chloro-1-(4-hydroxybutyl)-1H-indol-2-yl]methyl}-1-(2-hydroxy-2-methylpropanoyl)spiro[azetidine-3,3′-indol]-2′(1′H)-one]
other
  melting point: 157.11 °C
rgRSV224 virus; [2]
  EC50: 0.537 nM

## CC(C)(O)C(=O)N1CCC2(CC1)C(=O)N(Cc1nc3cc(Cl)ccc3n1CCCCF)c1cnccc12 [Compound 169, 1′-{[5-Chloro-1-(4-fluorobutyl)-1H-benzimidazol-2-yl]methyl}-1-(2-hydroxy-2-methylpropanoyl)spiro[piperidine-4,3′-pyrrolo[2,3-c]pyridin]-2′(1′H)-one]
other
  melting point: 222.72 °C
rgRSV224 virus; [2]
  EC50: 0.0275 nM

Reference: patent US9617289B2, “RSV antiviral compounds” (JANSSEN R&D IRELAND, priority 2012, dated 2017)
